Assay results as given in patent US5210089A, “D-rhamnono-1,5-lactone” (Monsanto Company, priority 1992, dated 1993).

How the values were obtained:
cytosolic β-glucosidase = molecular target: T1, cytosolic β-glucosidase (Homo sapiens, UniProt Q9H227); experiment: Human liver glycosidase assay, cytosolic β-glucosidase; type: biochemical; settings: for inhibition at 1000 µM: 1 mM compound; for IC50: read-out: I50, cytosolic β-glucosidase
T1 construct: human liver extracts; from tissue; host or cells: human liver extracts
T1 sequence (Q9H227 1-469): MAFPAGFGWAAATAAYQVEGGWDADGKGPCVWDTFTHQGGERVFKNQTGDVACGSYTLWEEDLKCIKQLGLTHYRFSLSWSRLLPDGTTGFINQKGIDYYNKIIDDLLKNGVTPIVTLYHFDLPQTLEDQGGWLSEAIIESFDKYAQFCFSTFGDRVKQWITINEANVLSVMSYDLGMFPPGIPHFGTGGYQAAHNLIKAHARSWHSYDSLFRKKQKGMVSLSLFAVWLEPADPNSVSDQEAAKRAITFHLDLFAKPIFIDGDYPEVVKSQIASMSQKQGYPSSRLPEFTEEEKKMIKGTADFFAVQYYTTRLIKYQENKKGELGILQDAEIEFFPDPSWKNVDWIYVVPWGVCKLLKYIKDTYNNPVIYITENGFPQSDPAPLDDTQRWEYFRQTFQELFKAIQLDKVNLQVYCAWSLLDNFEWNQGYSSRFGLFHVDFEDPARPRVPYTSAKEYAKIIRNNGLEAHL
Experimental: (§1) Melting points were recorded on a Kofler hot block. Proton nuclear magnetic resonance (δH) spectra were recorded on Varian Gemini 200 (at 200 MHz), Bruker WH 300 (300 MHz), or Bruker AM 500 (500 MHz) spectrometers. Carbon nuclear magnetic resonance (δC) spectra were recorded on a Varian Gemini 200 (50 MHz) or a Bruker 250 (62.9 MHz) spectrometer. Multiplicities were assigned using DEPT sequence on the Gemini and by off resonance decoupling on the Bruker. Spectra run in D2 O were referenced to methanol as an internal standard. All chemical shifts are quoted on the δ-scale. Infrared spectra were recorded on a Perkin-Elmer 297, or on a Perkin-Elmer 781 spectrophotometer. Mass spectra were recorded on VG Micromass 30F, ZAB lF, Masslab 20-250 or Trio-1 GCMS (DB-5 column) spectrometers using desorption chemical ionization (NH3 DCI), electron impact (EI), chemical ionization (NH3 CI) and fast atom bombardment (FAB) techniques, as stated. […] Concentrations were given in g/100 ml. Hydrogenations were run under an atmosphere of hydrogen gas maintained by inflated balloon. Microanalyses were performed by the microanalysis service of the DysonPerrins laboratory, Oxford UK. Thin layer chromatography (t.l.c.) was carried out on aluminum sheets coated with 60F254 silica. Plates were developed using either 5% v/v concentrated sulphuric acid in methanol, 0.2% w/v cerium (IV) sulphate and 5% ammonium molybdate in 2M sulphuric acid and 0.5% ninhydrin in methanol. Flash chromatography was carried out using Sorbsil C60 40/60 silica. Ion-exchange chromatography was performed using Dowex 50W-X8 (H) and Sigma CG 400 (Cl) resins. The resins were washed with 2M hydrochloric acid and 2M sodium hydroxide solution, respectively, and subsequently with distilled water, prior to use. Solvents and commercially available reagents were dried and purified before use according to standard procedures; dichloromethane was refluxed over and distilled from calcium hydride, N,N-dimethylformamide was distilled under reduced pressure from calcium hydride, methanol was distilled from magnesium methoxide, pyridine was distilled from, and stored over, potassium hydroxide and tetrahydrofuran was distilled from a purple solution of sodium benzophenone ketyl immediately before use. Hexane was distilled at 68° C. before use to remove involatile fractions. 2,3-O-Isopropylidene-L-gulono-1,4-lactone (9) [H. Ogura et al., J. Oro. Chem. 37, 72 (1972); G. W. J. Fleet Tetrahedron 45, 319 (1989)]and 2,3-O-isopropylidene-D-gulono-1,4-lactone (15) [L. M. Lerner et al., J. Org. […]
(§2) The enzymes included human liver glycosidases and naringinase. The latter enzyme is a readily available endo-L-rhamnosidase described by Romero et al., Anal. Biochem. 149, 566 (1985).

β-mannosidase = molecular target: T2, β-mannosidase (Homo sapiens, UniProt O00462); experiment: Human liver glycosidase assay, β-mannosidase; type: biochemical; parameters: human liver extracts; from tissue; host or cells: human liver extracts
T2 sequence (O00462 18-879): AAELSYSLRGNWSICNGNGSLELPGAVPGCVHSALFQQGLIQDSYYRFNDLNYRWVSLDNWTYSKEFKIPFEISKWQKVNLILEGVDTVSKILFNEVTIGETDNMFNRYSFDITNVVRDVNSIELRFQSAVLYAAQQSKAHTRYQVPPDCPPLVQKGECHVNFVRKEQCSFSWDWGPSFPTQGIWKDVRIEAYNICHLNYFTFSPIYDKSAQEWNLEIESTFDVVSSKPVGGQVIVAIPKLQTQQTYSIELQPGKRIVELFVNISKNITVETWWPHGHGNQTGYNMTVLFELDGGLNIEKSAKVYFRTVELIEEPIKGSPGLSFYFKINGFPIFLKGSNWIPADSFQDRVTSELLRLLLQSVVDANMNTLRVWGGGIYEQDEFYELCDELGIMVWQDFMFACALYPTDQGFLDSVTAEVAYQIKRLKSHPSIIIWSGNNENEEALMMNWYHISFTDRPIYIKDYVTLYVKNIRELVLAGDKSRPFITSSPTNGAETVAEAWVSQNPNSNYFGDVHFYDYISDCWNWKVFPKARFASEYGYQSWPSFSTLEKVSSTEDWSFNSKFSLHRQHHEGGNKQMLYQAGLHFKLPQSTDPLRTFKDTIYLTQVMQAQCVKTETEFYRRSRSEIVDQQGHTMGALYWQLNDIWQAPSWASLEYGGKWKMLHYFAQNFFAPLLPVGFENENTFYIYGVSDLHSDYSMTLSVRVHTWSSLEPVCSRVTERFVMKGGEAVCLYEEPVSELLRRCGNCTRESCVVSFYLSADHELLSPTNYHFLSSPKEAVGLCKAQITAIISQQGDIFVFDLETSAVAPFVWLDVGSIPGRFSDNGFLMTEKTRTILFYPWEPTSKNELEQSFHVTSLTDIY
Experimental: as §1, §2

[1] = tested on: rat epidodymal α-mannosidases; settings: literature; cited from earlier work
apricot β-glucosidase = settings: literature; cited from earlier work

Row | Inhibition of β-mannosidase (in words) (β-mannosidase) | SMILES | inhibition at 1000 µM (cytosolic β-glucosidase) [%] | IC50 (cytosolic β-glucosidase) [µM] | Inhibition of rat epididymal α-mannosidase (in words) [1] | Inhibition of apricot β-glucosidase (in words) (apricot β-glucosidase) | IC50 (β-mannosidase) [µM] | inhibition at 1000 µM (β-mannosidase; read-out: Inhibition (%) at 1 mM, β-mannosidase) [%]
1 | inhibitor of α- and β-mannosidases | C[C@H]1NC(=O)[C@@H](O)[C@@H](O)[C@@H]1O [D-Rhamno-1,5-lactam (6), 6-Deoxy-D-mannono-δ-lactam] | 67 | 700 | – | – | – | –
2 | no inhibitory activity | C[C@@H]1NC(=O)[C@H](O)[C@H](O)[C@H]1O [L-Rhamno-1,5-lactam (8), 6-Deoxy-L-mannono-δ-lactam] | – | – | – | – | – | –
3 | – | O=C1N[C@H](CO)[C@@H](O)[C@H](O)[C@@H]1O [Mannono-1,5-lactam (2), D-mannonolactam] | 98 | 50 | powerful inhibitor | powerful inhibitor | 10 | 99
